Where two headings read alike, the source gives them in different places. Some results are limits rather than exact numbers.

Here are results for 4 compounds from patent US11413349B2, “Green methodology to create polymeric nanocarriers containing hydrophilic low molecular-weight drugs and providing a very high drug loading and a very high prolonged release” (UNIVERSIDAD DE CHILE, priority 2019, dated 2022).

For data set [1] the following is noted: cited from earlier work.
Data set [2] can be described thus: Diafiltration study of kinetically and thermodynamically bound drug. It counts as physicochemical. The protocol:
Diafiltration studies were carried out to determine the fraction of amitriptyline (AMT) that was kinetically or thermodynamically bound to poly(sodium 4-styrenesulfonate (PSS) as the nanoparticle. For this study, diafiltration was been modeled as a two-compartment system, where a continuous liquid supply from the donor chamber (reservoir) is kept, maintaining a constant volume in the diafiltration cell. The unit used for diafiltration analyses consisted of a diafiltration cell, a regenerated cellulose membrane, a reservoir, a […], and a pressure source. […] The volume in the filtration cell was kept constant during the experiment, by creating a continuous flux of liquid through the diafiltration cell, from the reservoir to the collector tube. […] A total of 8 samples (approx. 5 mL) were collected and AMT concentration in each sample was determined by spectrophotometry. Subsequently, the thermodynamically bound (TB) and kinetically bound (KB) fractions were determined as follows: TB=v(km-j)/km KB=u-um The parameters v and u represent the initial fraction of AMT thermodynamically bound to the particles, thus in equilibrium, and the fraction bound to the nanocarriers whose release is kinetically controlled, respectively. […] A total of 8 samples (approx. 5 mL) were collected and the concentration of the interest species in each sample was determined by spectrophotometry. […]

The conditions of data set [3]: cited from earlier work. The source holds these as a separate data set.
Data set [4] is described as follows: In vitro drug release by dialysis. It counts as physicochemical. To be noted: AMT/PSS n+/n−=0.60, dialysis, pH=7 and 37° C., 20 days. How it is done: The in vitro drug release of amitriptyline (AMT) from poly (sodium 4-styrenesulfonate (PSS) was evaluated using a dialysis method. Briefly, 5 mL of AMT/PSS (n+/n−=0.60) was transferred to a dialysis membrane. The membrane was immersed in 95 mL of Milli-Q water at pH 7 and kept at 37° C. and 100 rpm in an orbital shaker. The experiment was carried out for 20 days. Aliquots (500 μL) of the solution were withdrawn at certain time intervals and replaced with an equal volume of fresh Milli-Q water. The amount of released AMT was determined by measuring the absorbance of each aliquot at 239 nm. The standard curve of AMT in water was linear (R2>0.997) in the range of concentrations between 7×10^−5 M and 7×10^−7 M (molar extinction coefficient was 12712 M^−1 cm^−1). Blank experiments dialyzing free AMT were carried out at the same conditions.
i) Dialysis: 5 mL of HALMD/PSS formulations were added in a dialysis bag (MWCO 10 kDa, ThermoScientific, USA). The dialysis system was immersed in 95 mL of Milli-Q water at pH 7 and kept at 37° C., and 100 rpm in an orbital shaker (LSI-3016R, LabTech, Daihan LabTech, Kyonggi-Do, Korea). […] The amount of released HALMD (CQ, PMZ and CPM) was determined by measuring the absorbance of each aliquot by spectrophotometry (Agilent 8453 spectrophotometer, USA).

Take `CN(C)CCC(c1ccc(Cl)cc1)c1ccccn1` (centres unmarked) [Chlorpheniramine]: the pKa (in general, the negative logarithm of the acid dissociation constant) in data set [1] is recorded as 4.0; in data set [1] (second value), 9.4. Also, the “drug association attributed to kinetic binding” value in data set [2] (HALMD/PSS NPs) is given as “≈ 50%”.

For the compound `CN(C)CCC=C1c2ccccc2CCc2ccccc21` [AMT, amitriptyline], the release in data set [3] (from polyvinyl alcohol-based beads, first stage of the experiment (Ahnfelt et al)) is listed as more than 80%. The “release of AMT” value in data set [4] was not above 16.5%. Further, the “drug molecules not subjected to equilibrium with the bulk (release kinetically controlled)” value in data set [2] (AMT/PSS formulations) is “more than 80%”.

Consider `COc1cccc2c1C(=O)c1c(O)c3c(c(O)c1C2=O)C[C@@](O)(C(=O)CO)C[C@@H]3O[C@H]1C[C@H](N)[C@H](O)[C@H](C)O1` [doxorubicin], for which the initial drug release in data set [3] (poly(N-isopropylacrylamide)-based thermosensitive hydrogel (Chen et al)) is 40%.

In the case of `CN(C)CCCN1c2ccccc2CCc2ccccc21` [imipramine], the burst release entry in data set [3] (from calcium-alginate gel beads, 1-2 h (Tomida et al)) is “≈ 80%”.
